From PubChem BioAssay (NCI)
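Five compound concentrations were applied to cells in 96-well plates for 48 hours; endpoints were derived by simple linear interpolation of the resulting dose-response curve. TGI denotes the concentration required for complete inhibition of growth.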

What was measured:
Assay in all cases: inhibition of tumour cell growth, NCI panel, 48 h
KM12 colon = test system: KM12 colon
HCT-15 colon = test system: HCT-15 colon
COLO 205 colon = test system: COLO 205 colon
U251 CNS = test system: U251 CNS
RPMI-8226 leukemia = test system: RPMI-8226 leukemia
CCRF-CEM leukemia = test system: CCRF-CEM leukemia
MOLT-4 leukemia = test system: MOLT-4 leukemia
K-562 leukemia = test system: K-562 leukemia
HS 578T breast = test system: HS 578T breast
786-0 renal = test system: 786-0 renal
NCI-H460 lung = test system: NCI-H460 lung
OVCAR-4 ovarian = test system: OVCAR-4 ovarian
MCF7 breast = test system: MCF7 breast
SNB-19 CNS = test system: SNB-19 CNS
SF-539 CNS = test system: SF-539 CNS
MDA-MB-435 = test system: MDA-MB-435
UACC-257 melanoma = test system: UACC-257 melanoma
LOX IMVI melanoma = test system: LOX IMVI melanoma
SR leukemia = test system: SR leukemia
SK-MEL-2 melanoma = test system: SK-MEL-2 melanoma
SK-OV-3 ovarian = test system: SK-OV-3 ovarian
DU-145 prostate = test system: DU-145 prostate
HOP-92 NSCLC = test system: HOP-92 NSCLC
EKVX NSCLC = test system: EKVX NSCLC
HCC-2998 colon = test system: HCC-2998 colon
OVCAR-5 ovarian = test system: OVCAR-5 ovarian
IGROV1 ovarian = test system: IGROV1 ovarian
T-47D breast = test system: T-47D breast
M14 melanoma = test system: M14 melanoma
HL-60(TB) leukemia = test system: HL-60(TB) leukemia
SK-MEL-5 melanoma = test system: SK-MEL-5 melanoma
CAKI-1 renal = test system: CAKI-1 renal
SF-268 CNS = test system: SF-268 CNS
MDA-MB-231 breast = test system: MDA-MB-231 breast
NCI-H522 lung = test system: NCI-H522 lung
NCI/ADR-RES ovarian = test system: NCI/ADR-RES ovarian
PC-3 prostate = test system: PC-3 prostate
OVCAR-3 ovarian = test system: OVCAR-3 ovarian
RXF 393 renal = test system: RXF 393 renal
OVCAR-8 ovarian = test system: OVCAR-8 ovarian
TK-10 renal = test system: TK-10 renal
A549 NSCLC = test system: A549 NSCLC
BT-549 breast = test system: BT-549 breast
MDA-N = test system: MDA-N
UACC-62 melanoma = test system: UACC-62 melanoma
SW-620 colon = test system: SW-620 colon
NCI-H23 lung = test system: NCI-H23 lung
MALME-3M melanoma = test system: MALME-3M melanoma
ACHN renal = test system: ACHN renal
SN12C renal = test system: SN12C renal
HT29 colon = test system: HT29 colon
A498 renal = test system: A498 renal
HCT-116 colon = test system: HCT-116 colon
NCI-H226 lung = test system: NCI-H226 lung
SF-295 CNS = test system: SF-295 CNS
UO-31 renal = test system: UO-31 renal
HOP-62 NSCLC = test system: HOP-62 NSCLC
SK-MEL-28 melanoma = test system: SK-MEL-28 melanoma
SNB-75 CNS = test system: SNB-75 CNS

Measured: TGI

CC12CCC(C(Nc3ccccn3)C1=O)C2(C)C (stereo not drawn)
> 100 µM: all assays above

Cc1ccc(S(=O)(=O)N2CCNCCN(S(=O)(=O)c3ccc(C)cc3)CCN(S(=O)(=O)c3ccc(C)cc3)CC2)cc1
> 100 µM: all assays above
